Source: patent publication US8372971B2, “Heterocyclic compounds and methods of use” (TargeGen, Inc., priority 2004, dated 2013)
Structures can show the parent of a compound that is named as a salt.

Key:
[1] = target: T1, raf1 with inactive MEK1 (Raf1-MEK1) (Homo sapiens, UniProt P04049); assay: Raf1-MEK1 assay (KinaseGlo); assay type: biochemical; conditions: for IC50: Raf-Mek, 3 uM ATP, read-out: RAF-MEK assay (biochemical assay)
T1 construct: purchased Upstate, Lake Placid, N.Y

[2] = tested on: p-MEK and p-ERK levels in HUVECs; assay: Western Blot, inhibition of MAPK pathway in cellular assay (Example 27); assay type: cell-based, human; conditions: for Western Blot: at 5 uM, 50 ng/ml VEGF or FGF
Method: (§1) Western Blot: Early passage primary human umbilical vein endothelial cells (HUVECs) were maintained in EGM-2 containing SingleQuots (Cambrex, East Rutherford, N.J.), 10% FBS, 10 mM HEPES, and 50 μg/ml gentamicin. Prior to treatment of the cells with inhibitor, the HUVECs were starved for 18 h by replacing serum-containing complete media with scrum-free and SingleQuot-free media. The starved cells were pre-treated with inhibitors for 60 min at various concentrations (0-20 μM). Next the HUVECs were treated with 50 ng/ml VEGF or FGF (Peprotech, Rocky Hill, N.J.) for 6 min and the cells were immediately washed with ice-cold PBS. Cells were lysed with ice-cold RIPA buffer containing 100 mM Tris pH 7.5, 150 mM NaCl, 1 mM EDTA, 1% deoxycholate, 1% Triton X-100, 0.1% SDS, 2 mM PMSF, one Complete-Mini protease inhibitor tablet (Roche, Indianapolis, Ind.; 1 tablet/7 ml of lysis buffer) and the phophatase inhibitors NaF (500 mM) and orthovanadate (1 mM). The cells were scraped and lysates transferred and centrifuged at 15,000 g for 10 min. Supernatants were transferred to new tubes and protein concentration was quantitated using the BCA protein reagent (Pierce, Rockford, Ill.). Cell lysates containing 20 μg of total protein were separated by 10% SDS-PAGE, transferred to nitrocellulose, and blocked in 5% milk in TBST. Anti phospho-ERK Thr 202/Tyr 204 (Cell Signaling, Beverly, Mass.), anti-phospho-MEK Ser217/221 (Cell Signaling), and c-Raf (BD Biosciences Pharmingen, San Diego, Calif.) used as primary antibodies were detected with horseradish peroxidase-conjugated goat anti-mouse or rabbit secondary antibodies and bands were visualized using the SuperSignal West Pico chemiluminescence reagent system (Pierce) and Kodak X-ray film (Rochester, N.Y.).

HUVECs = assay: XTT cell viability assay (Example 28); assay type: cell-based; conditions: Homo sapiens, HUVEC, 24-48 hours, read-out: Inhibition of HUVEC cell prolifiration (IC50)
Method: XTT assay: HUVECs were seeded at 10,000 cells/well of a tissue culture treated 96-well plate treated with collagen type I and grown overnight in the complete EGM-2 media as described above. The following morning, the inhibitors were serial diluted with DMSO and added to the cells with a final DMSO concentration of 1%. After 24-48 hours cell viability was measured with an XTT assay (Sigma, St. Louis, Mo.). The cells were also photographed to compare morphological differences to the XTT trends observed. Determination of the IC50 values was performed with quantitative software (Prism software package, GraphPad Software, San Diego Calif.).

recombinant human raf1 = target: T2, recombinant human raf1 (Homo sapiens, UniProt P04049); assay: Raf1 direct kinase assay (KinaseGlo); assay type: biochemical; conditions: printed in the RAF-MEK column
T2 construct: purchased Upstate, Lake Placid, N.Y
T2 sequence (P04049 whole entry): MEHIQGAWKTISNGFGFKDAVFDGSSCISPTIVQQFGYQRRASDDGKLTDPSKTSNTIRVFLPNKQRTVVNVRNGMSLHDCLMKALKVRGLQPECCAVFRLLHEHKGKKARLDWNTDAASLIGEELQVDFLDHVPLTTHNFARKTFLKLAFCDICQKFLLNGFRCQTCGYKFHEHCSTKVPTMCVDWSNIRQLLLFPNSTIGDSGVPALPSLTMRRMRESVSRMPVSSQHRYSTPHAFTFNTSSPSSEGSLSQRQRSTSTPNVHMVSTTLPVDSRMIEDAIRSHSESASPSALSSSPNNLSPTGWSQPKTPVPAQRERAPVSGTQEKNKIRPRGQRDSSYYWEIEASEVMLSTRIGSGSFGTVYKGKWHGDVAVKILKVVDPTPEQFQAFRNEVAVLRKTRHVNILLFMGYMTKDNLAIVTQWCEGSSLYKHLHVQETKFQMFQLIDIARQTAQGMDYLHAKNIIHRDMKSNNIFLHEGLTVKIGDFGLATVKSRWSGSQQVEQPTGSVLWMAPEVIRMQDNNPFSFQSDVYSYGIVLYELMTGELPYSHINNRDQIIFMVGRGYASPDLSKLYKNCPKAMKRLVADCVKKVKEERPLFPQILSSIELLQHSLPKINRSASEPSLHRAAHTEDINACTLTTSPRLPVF
Method: The ability of compounds of general structure (A) of the present invention to inhibit the kinase activity of Raf1 was evaluated using two methods: a direct and a Raf1-MEK1 assay. In the direct assay, kinase reactions were conducted in 96-well plates by combining recombinant human raf1 (29.4 U/well, Upstate, Lake Placid, N.Y.), ATP (3 μM), myelin basic protein substrate (MBP, 1 mg/ml, Upstate, Lake Placid, N.Y.), and test agents (at concentrations ranging from about 1 nM/l to about 10 μM), in the presence of kinase reaction buffer. […] After reacting for 60 minutes at 30° C., residual ATP was measured using a luciferase-based assay (KinaseGlo, Promega Corp.) as a measure of kinase activity. Data from four wells were then averaged and used to determine IC50 values for the test compounds (Prism software package, GraphPad Software, San Diego Calif.).

[3] = tested on: p-MEK and p-ERK levels in HUVECs; assay: Western Blot, inhibition of MAPK pathway in cellular assay (Example 105); assay type: cell-based, human; conditions: VEGF or FGF
Method: as §1, with “Some compounds described by the general structure (B) were tested for inhibition of MAPK pathway in cellular assay. Western” for “Western”, “serum-free” for “scrum-free”, “main.” for “min.”

T1 sequence (P04049 306-648 limits assumed): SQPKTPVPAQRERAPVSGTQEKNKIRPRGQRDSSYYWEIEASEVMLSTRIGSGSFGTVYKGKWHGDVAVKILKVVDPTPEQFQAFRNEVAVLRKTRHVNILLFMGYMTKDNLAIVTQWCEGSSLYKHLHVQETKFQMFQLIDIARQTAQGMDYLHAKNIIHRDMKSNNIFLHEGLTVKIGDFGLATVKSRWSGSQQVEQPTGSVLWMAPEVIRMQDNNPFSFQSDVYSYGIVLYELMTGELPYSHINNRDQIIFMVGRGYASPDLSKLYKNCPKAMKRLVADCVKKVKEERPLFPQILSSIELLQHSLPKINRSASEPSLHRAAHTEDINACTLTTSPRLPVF

RAF-MEK assay (biochemical assay), result in words [1] | IC50 [1] [nM] | SMILES | Western Blot [2] | other results
flat | – | CNC(=O)c1cc(Oc2ccc3nc(NC(=O)c4ccc(Cl)cc4Cl)nnc3c2)ccn1 [4-[2,4-dichloro-benzoylamino)-benzo[1,2,4]triazin-7-yloxy]-pyridine-2-carboxylic acid methyl amide trifluoroacetate salt] | not active at 5 uM | –
flat | – | CNC(=O)c1cc(Oc2ccc3nc(NS(=O)(=O)c4ccccc4C(F)(F)F)nnc3c2)ccn1 [4-[2-(trifluoromethyl-benzenesulfonylamino)-benzo[1,2,4]triazin-7-yloxy]-pyridine-2-carboxylic acid methyl amide trifluoroacetate salt] | not active at 5 uM | –
– | 723 | CNC(=O)c1cc(Oc2ccc3nc(NC(=O)c4cc(C(F)(F)F)cc(Cl)c4F)nnc3c2)ccn1 [4-[2-fluoro-3-chloro-5-trifluoromethyl-benzoylamino)-benzo[1,2,4]triazin-7-yloxy]-pyridine-2-carboxylic acid methyl amide trifluoroacetate salt] | not active at 5 uM | window [1]: ~30%
flat | – | CNC(=O)c1cc(Oc2ccc3nc(NC(=O)c4cccc(C(F)(F)F)c4Cl)nnc3c2)ccn1 [4-[3-(2-chloro-3-trifluoromethyl-benzoylamino)-benzo[1,2,4]triazin-7-yloxy]-pyridine-2-carboxylic acid methyl amide trifluoroacetate salt] | not active at 5 uM | –
flat | – | CNC(=O)c1cc(Oc2ccc3nc(NS(=O)(=O)c4cccc(C(F)(F)F)c4)nnc3c2)ccn1 [4-[3-(3-trifluoromethyl-benzenesulfonylamino)-benzo[1,2,4]triazin-7-yloxy]-pyridine-2-carboxylic acid methyl amide trifluoroacetate salt] | not active at 5 uM | –
– | 655 | CNC(=O)c1cc(Oc2ccc3nc(NC(=O)c4cccc(C(F)(F)F)c4)nnc3c2)ccn1 [4-[3-(3-trifluoromethyl-benzoylamino)-benzo[1,2,4]triazin-7-yloxy]-pyridine-2-carboxylic acid methyl amide trifluoroacetate salt] | not active at 5 uM | window [1]: ~70%
– | – | O=C(Nc1nnc2cc(Oc3ccnc(C(=O)NCCN4CCOCC4)c3)ccc2n1)c1ccc(OC(F)(F)F)cc1 [4-[3-(4-Trifluoromethoxy-benzoylamino)-benzo[1,2,4]triazin-7-yloxy]-pyridine-2-carboxylic acid (2-morpholin-4-yl-ethyl)-amide] | active at 5 uM | IC50 (HUVECs): 1480 nM
– | 10000 to 50000 | CNC(=O)c1cc(Oc2ccc3nc(NC(=O)c4ccc(Cl)c(C(F)(F)F)c4)nnc3c2)ccn1 [4-[3-(4-chloro-3-trifluoromethyl-benzoylamino)-benzo[1,2,4]triazin-7-yloxy]pyridine-2-carboxylic acid meth amide trifluoroacetate salt] | not active at 5 uM | –
– | 11.6 | CNC(=O)c1cc(Oc2ccc3nc(Nc4ccc(Cl)c(C(F)(F)F)c4)nnc3c2)ccn1 [4-[3-(4-chloro-3-trifluoromethyl-phenylamino)-benzo[1,2,4]triazin-7-yloxy]-pyridine-2-carboxylic acid methylamide trifluoroacetate salt] | not active at 5 uM | window [1]: ~20%
– | 10000 to 50000 | CNC(=O)c1cc(Oc2ccc3nc(Nc4ccc(Cl)cc4)nnc3c2)ccn1 [4-[3-(4-chloro-phenylamino)-benzo[1,2,4]triazin-7-yloxy]-pyridine-2-carboxylic acid methylamide trifluoroacetate salt] | not active at 5 uM | window [1]: 100%; IC50 (recombinant human raf1): 77 nM
– | > 50000 | CNC(=O)c1cc(Oc2ccc3nc(NS(=O)(=O)c4ccc(Cl)s4)nnc3c2)ccn1 [4-[3-(5-chloro-thiophene-2-sulfonylamino)-benzo[1,2,4]triazin-7-yloxy]-pyridine-2-carboxylic acid methyl amide trifluoroacetate salt] | not active at 5 uM | –
– | > 50000 | CNC(=O)c1cc(Oc2ccc3nc(NS(=O)(=O)c4cc(Cl)ccc4OC)nnc3c2)ccn1 [4-[3-chloro-6-methoxy-benzenesulfonylamino)-benzo[1,2,4]triazin-7-yloxy]-pyridine-2-carboxylic acid methyl amide trifluoroacetate salt] | not active at 5 uM | –
– | – | CN(C)C(=O)c1cc(Oc2ccc3nc(N(C)C(=O)c4ccc(OC(F)(F)F)cc4)nnc3c2)ccn1 [4-{3-[Methyl-(4-trifluoromethoxy-benzoyl)-amino]-benzo[1,2,4]triazin-7-yloxy}-pyridine-2-carboxylic acid dimethyl amide] | partially active at 5 uM | –
– | – | N#CC(=C(/N)Sc1ccccc1N)/C(C#N)=C(\N)Sc1ccccc1N [Example U0126, reference compound] | – | IC50 ([2]; Homo sapiens, HUVEC, VEGF or FGF, read-out: reduction in p-Erk levels, IC50): 200 to 300 nM; p-MEK levels ([2]; VEGF or FGF): unaffected; IC50 ([3]; Homo sapiens, HUVEC, read-out: reduction in p-Erk levels, IC50): 200 to 300 nM; p-MEK levels [3]: unaffected
– | – | O=C(Nc1nnc2cc(Oc3ccncc3)ccc2n1)c1ccc(OC(F)(F)F)cc1 [N-[7-(Pyridin-4-yloxy)-benzo[1,2,4]triazin-3-yl]-4-trifluoromethoxy-benzamide] | not active at 5 uM | IC50 (HUVECs): 7380 nM
flat | – | CNC(=O)c1cc(Oc2ccc3nc(NC(=O)c4cccc(Cl)c4)nnc3c2)ccn1 [trifluoroacetate salt] | not active at 5 uM | –
